Tests used:
[1] = biological target: T1, NicA2 (nicotine oxidoreductase) (Pseudomonas putida, UniProt F8G0P2); experiment: bound flavin absorbance at […] nm; ThermoFAD; format: binding; settings: co-purified bound cofactor
T1 construct: expressed in E. coli BL21 (DE3) from pET28a-His-SUMO-nicA2, His-SUMO tag cleaved by ULP-1
T1 sequence (F8G0P2 39-482 limits assumed): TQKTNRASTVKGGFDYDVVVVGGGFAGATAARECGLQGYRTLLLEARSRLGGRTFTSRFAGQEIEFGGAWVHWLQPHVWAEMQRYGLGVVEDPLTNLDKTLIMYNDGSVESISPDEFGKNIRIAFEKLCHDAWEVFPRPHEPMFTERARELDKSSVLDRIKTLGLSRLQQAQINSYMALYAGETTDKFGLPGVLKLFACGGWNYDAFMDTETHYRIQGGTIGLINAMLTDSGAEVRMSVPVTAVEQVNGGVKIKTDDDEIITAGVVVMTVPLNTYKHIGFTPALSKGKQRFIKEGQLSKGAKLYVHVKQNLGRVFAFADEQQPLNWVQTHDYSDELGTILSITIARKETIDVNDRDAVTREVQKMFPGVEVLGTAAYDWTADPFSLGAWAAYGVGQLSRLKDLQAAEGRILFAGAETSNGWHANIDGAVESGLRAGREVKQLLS

[2] = biological target: the molecule itself; experiment: crystal structure; hanging-drop vapor diffusion at 4 °C; NicA2 v321 ligand-free and with 20 mM NMM (sodium citrate pH 5.0, 18% PEG 6000), wild type with 2.3 mM NMM (0.2 M ammonium citrate pH 7.0, 20% PEG 3350); two molecules in the asymmetric unit

Molecule: Cc1cc2nc3c(=O)[nH]c(=O)nc-3n(C[C@H](O)[C@H](O)[C@H](O)COP(=O)(O)OP(=O)(O)OC[C@H]3O[C@@H](n4cnc5c(N)ncnc54)[C@H](O)[C@@H]3O)c2cc1C [flavin adenine dinucleotide]
- bound flavin absorbance at 450 nm; ThermoFAD [1]: determined using the absorbance of bound FAD cofactor

B1: nicotine oxidoreductase (NicA2), wild type (enzyme, Pseudomonas putida S16, UniProt F8G0P2 39-482, looked up)
chain: T1 sequence (F8G0P2 39-482 limits assumed)
notes: nicotine oxidoreductase NicA2 of Pseudomonas putida S16; crystallised with N-methylmyosmine (NMM); also called wild-type NicA2; WT; source: E. coli BL21 (DE3), purified (HisTrap, ULP-1 cleavage, HiTrap Q, Superdex 200)
- stoichiometry N [2]: 2

Source: paper PMC10611581, “Directed evolution unlocks oxygen reactivity for a nicotine-degrading flavoenzyme” (Nature Chemical Biology, 2023)
